Experimental data: patent US20150246058A1, “COMPOSITION FOR PREVENTING HAIR LOSS AND ACCELERATING HAIR GROWTH” (RNS CO., LTD., priority 2012, published 2015)

Tested on: 5α-reductase
Test: 5α-reductase inhibitory efficacy: DHT produced in testosterone-stimulated dermal papilla cells (DHT ELISA)
Assay type: cell-based
Details: 50 nM testosterone, 24 hours, produced DHT relative to control
Method: After seeding 1 ml of dermal papilla cells (DPCs) by 5×10^5/ml into each well of a 24-well plate, then incubating the same for 24 hours, each of the reaction products prepared according to procedures described in Examples 1 to 72 was added in amounts of 50 μg/ml, 10 μg/ml and 0 μg/ml, respectively, to individual wells. After 1 hour, the wells were subjected to stimulation using 50 nM testosterone (DMSO dissolved). The supernatant was discarded 24 hours after culturing, to thus obtain DPc pellets. A content of dihydrotestosterone (DHT) (DB52021, Hamburg, Germany) was determined by means of enzyme-linked immune-sorbent assay. DPCs cell pellets were seeded in an amount of 100 μL into each of Dihydrotestosterone (DHT) ELISA microtiter strips coated with rabbit anti-DHT antibody, 25 μL of DHT antiserum was seeded in every well, and subjected to a reaction at 2 to 8° C. for 15 to 20 hours, followed by washing the same three times. Thereafter, 100 μL of DHT-HRP enzyme conjugate was seeded in every well and reacted on a shaker at room temperature for 30 minutes, followed by washing the same three times. Furthermore, 100 μL of substrate was seeded in every well and reacted on a shaker at room temperature for 20 to 30 minutes. Then, the product was treated using 100 μL stop solution, and subjected to measurement of absorbance at 450 nm to express an amount of produced DHT by the absorbance (three times repeated). An amount of produced DHT relative to a control was calculated in terms of an inhibitory rate (%), and results thereof are shown in Table 3 below.

Structure (SMILES)	5α-reductase inhibitory rate (%) (sample concentration 10 μg/ml)	5α-reductase inhibitory rate (%) (sample concentration 50 μg/ml)
CC1(C)CC[C@]2(C)CC[C@]3(C)C(=CC[C@@H]4[C@@]5(C)CC[C@H](O)C(C)(C)[C@@H]5CC[C@]43C)[C@@H]2C1 [Compound in Example 1, β-amyrin]	15%	28%
CC(=O)O[C@H]1CC[C@]2(C)[C@H]3CC=C4[C@@H]5CC(C)(C)CC[C@]5(C)CC[C@@]4(C)[C@]3(C)CC[C@H]2C1(C)C [Compound in Example 2, β-amyrin acetate]	21%	34%
CC(C)=CC(=O)OC1CCC2(C)C(CCC3(C)C2CC=C2C4CC(C)(C)CCC4(C)CCC23C)C1(C)C (stereo not drawn) [Compound in Example 3, β-amyrin 3-methyl-2-butenate]	28%	41%
CCCCC(CC)C(=O)OC1CCC2(C)C(CCC3(C)C2CC=C2C4CC(C)(C)CCC4(C)CCC23C)C1(C)C (stereo not drawn) [Compound in Example 4, β-amyrin 2-ethylhexanoate]	36%	54%
CCCCCCCC(=O)OC1CCC2(C)C(CCC3(C)C2CC=C2C4CC(C)(C)CCC4(C)CCC23C)C1(C)C (stereo not drawn) [Compound in Example 5, β-amyrin octanoate]	41%	57%
CCCCCCCCCCCCCCCC(=O)O[C@H]1CC[C@]2(C)[C@H]3CC=C4[C@@H]5CC(C)(C)CC[C@]5(C)CC[C@@]4(C)[C@]3(C)CC[C@H]2C1(C)C [Compound in Example 7, β-amyrin palmitate]	53%	67%
C[C@H]1[C@H](C)CC[C@]2(C)CC[C@]3(C)C(=CC[C@@H]4[C@@]5(C)CC[C@H](O)C(C)(C)[C@@H]5CC[C@]43C)[C@H]12 [Compound in Example 10, α-amyrin]	13%	29%
CC(=O)O[C@H]1CC[C@]2(C)[C@H]3CC=C4[C@@H]5[C@@H](C)[C@H](C)CC[C@]5(C)CC[C@@]4(C)[C@]3(C)CC[C@H]2C1(C)C [Compound in Example 11, α-amyrin acetate]	31%	42%
CCCCCCCC(=O)OC1CCC2(C)C(CCC3(C)C2CC=C2C4C(C)C(C)CCC4(C)CCC23C)C1(C)C (stereo not drawn) [Compound in Example 12, α-amyrin octanoate]	35%	49%
CC[C@H](CC[C@@H](C)[C@H]1CC[C@H]2[C@@H]3CC=C4C[C@@H](O)CC[C@]4(C)[C@H]3CC[C@]12C)C(C)C [Compound in Example 14, β-sitosterol]	11%	26%
CC[C@H](CC[C@@H](C)[C@H]1CC[C@H]2[C@@H]3CC=C4C[C@@H](OC(C)=O)CC[C@]4(C)[C@H]3CC[C@]12C)C(C)C [Compound in Example 15, β-sitosterol acetate]	21%	29%
CCCCCCCC(=O)OC1CCC2(C)C(=CCC3C2CCC2(C)C(C(C)CCC(CC)C(C)C)CCC32)C1 (stereo not drawn) [Compound in Example 16, β-sitosterol octanoate]	28%	39%
CCCCCCCCCCCCCCCCCC(=O)O[C@H]1CC[C@@]2(C)C(=CC[C@H]3[C@@H]4CC[C@H]([C@H](C)CC[C@@H](CC)C(C)C)[C@@]4(C)CC[C@@H]32)C1 [Compound in Example 17, β-sitosterol stearate]	31%	42%
C[C@H]1[C@H](C)CC[C@]2(C(=O)O)CC[C@]3(C)C(=CC[C@@H]4[C@@]5(C)CC[C@H](O)C(C)(C)[C@@H]5CC[C@]43C)[C@H]12 [Compound in Example 18, ursolic acid]	16%	29%
CCCCCCCC(=O)OC1CCC2(C)C(CCC3(C)C2CC=C2C4C(C)C(C)CCC4(C(=O)O)CCC23C)C1(C)C (stereo not drawn) [Compound in Example 20, ursolic acid octanoate]	31%	46%
CC1(C)CC[C@]2(C(=O)O)CC[C@]3(C)C(=CC[C@@H]4[C@@]5(C)CC[C@H](O)C(C)(C)[C@@H]5CC[C@]43C)[C@@H]2C1 [Compound in Example 22, oleanolic acid]	7%	16%
CCCCCCCC(=O)OC1CCC2(C)C(CCC3(C)C2CC=C2C4CC(C)(C)CCC4(C(=O)O)CCC23C)C1(C)C (stereo not drawn) [Compound in Example 24, oleanolic acid octanoate]	21%	39%

Structure (SMILES)	5α-reductase inhibitory rate (%) (sample concentration 10 μg/ml)	5α-reductase inhibitory rate (%) (sample concentration 50 μg/ml)
CC1(C)CC[C@]2(C)CC[C@]3(C)C(=CC[C@@H]4[C@@]5(C)CC[C@@H](O)[C@](C)(C(=O)O)[C@@H]5CC[C@]43C)[C@@H]2C1 [Compound in Example 26, α-boswellic acid]	10%	19%
CC(=O)OC1CCC2(C)C(CCC3(C)C2CC=C2C4CC(C)(C)CCC4(C)CCC23C)C1(C)C(=O)O (stereo not drawn) [Compound in Example 27, α-boswellic acid acetate]	21%	29%
C[C@H]1[C@H](C)CC[C@]2(C)CC[C@]3(C)C(=CC[C@@H]4[C@@]5(C)CC[C@@H](O)[C@](C)(C(=O)O)[C@@H]5CC[C@]43C)[C@H]12 [Compound in Example 29, β-boswellic acid]	11%	23%
CC(=O)OC1CCC2(C)C(CCC3(C)C2CC=C2C4C(C)C(C)CCC4(C)CCC23C)C1(C)C(=O)O (stereo not drawn) [Compound in Example 30, β-boswellic acid acetate]	14%	29%
C=C(C)[C@@H]1CC[C@]2(C(=O)O)CC[C@]3(C)[C@H](CC[C@@H]4[C@@]5(C)CC[C@H](O)C(C)(C)[C@@H]5CC[C@]43C)[C@@H]12 [Compound in Example 32, betulinic acid]	9%	17%
CC1(C)[C@@H](O)CC[C@]2(C)[C@H]3C(=O)C=C4[C@@H]5C[C@@](C)(C(=O)O)CC[C@]5(C)CC[C@@]4(C)[C@]3(C)CC[C@@H]12 [Compound in Example 34, glycyrrhetinic acid]	6%	18%
C[C@]12CC[C@H](O)CC1=CC[C@@H]1[C@@H]2CC[C@]2(C)C(=O)CC[C@@H]12 [Compound in Example 36, dihydroandrosterone]	9%	28%
CC(C)=CCC[C@@H](C)[C@H]1CC[C@H]2[C@@H]3CC=C4C[C@@H](O)CC[C@]4(C)[C@H]3CC[C@]12C [Compound in Example 38, desmosterol]	12%	31%
CC(C)CCC[C@@H](C)[C@H]1CC[C@H]2[C@@H]3CC=C4C[C@@H](O)CC[C@]4(C)[C@H]3CC[C@]12C [Compound in Example 40, cholesterol]	15%	17%
CCCCCCCCCCCCCCCCCC(=O)O[C@H]1CC[C@@]2(C)C(=CC[C@H]3[C@@H]4CC[C@H]([C@H](C)CCCC(C)C)[C@@]4(C)CC[C@@H]32)C1 [Compound in Example 41, cholesterol stearate]	26%	39%
CC[C@H](/C=C/[C@@H](C)[C@H]1CC[C@H]2[C@@H]3CC=C4C[C@@H](O)CC[C@]4(C)[C@H]3CC[C@]12C)C(C)C [Compound in Example 42, Stigmasterol]	8%	24%
CCCCCCCCCCCCCCCCCC(=O)O[C@H]1CC[C@@]2(C)C(=CC[C@H]3[C@@H]4CC[C@H]([C@H](C)/C=C/[C@@H](CC)C(C)C)[C@@]4(C)CC[C@@H]32)C1 [Compound in Example 43, Stigmasterol stearate]	31%	41%
CC(C)[C@H](C)CC[C@@H](C)[C@H]1CC[C@H]2[C@@H]3CC=C4C[C@@H](O)CC[C@]4(C)[C@H]3CC[C@]12C [Compound in Example 44, Campesterol]	11%	21%
CCCCCCCCCCCCCCCCCC(=O)O[C@H]1CC[C@@]2(C)C(=CC[C@H]3[C@@H]4CC[C@H]([C@H](C)CC[C@@H](C)C(C)C)[C@@]4(C)CC[C@@H]32)C1 [Compound in Example 45, Campesterol stearate]	26%	43%
CC(C)[C@@H](C)/C=C/[C@@H](C)[C@H]1CC[C@H]2[C@@H]3CC=C4C[C@@H](O)CC[C@]4(C)[C@H]3CC[C@]12C [Compound in Example 46, brassicasterol]	8%	19%
C/C=C(\CC[C@@H](C)[C@H]1CC[C@H]2[C@@H]3CC=C4C[C@@H](O)CC[C@]4(C)[C@H]3CC[C@]12C)C(C)C [Compound in Example 48, fucosterol]	12%	19%
